Experiments:
Type in all cases: in vivo
[1] = system: giant foxtail (Setaria faberi); assay: Test A pre-/postemergence plant response
Excerpt: (§1) Seeds of species selected from barnyardgrass (Echinochloa crus-galli), large crabgrass (Digitaria sanguinalis), giant foxtail (Setaria faberi), blackgrass (Alopecurus myosuroides), canarygrass (Phalaris minor), morningglory (Ipomoea coccinea), pigweed (Amaranthus retroflexus), velvetleaf (Abutilon theophrasti), wheat (Triticum aestivum), and corn (Zea mays) were planted into a blend of loam soil and sand and treated preemergence with a directed soil spray using test chemicals formulated in a non-phytotoxic solvent mixture which included a surfactant. At the same time these species were also treated with postemergence applications of test chemicals formulated in the same manner.
(§2) Plants ranged in height from 2 to 10 cm and were in the one- to two-leaf stage for the postemergence treatment. Treated plants and untreated controls were maintained in a greenhouse for approximately 10 days, after which time all treated plants were compared to untreated controls and visually evaluated for injury. Plant response ratings, summarized in Table A, are based on a 0 to 100 scale where 0 is no effect and 100 is complete control. A dash (-) response means no test results.

[2] = system: barnyardgrass (Echinochloa crus-galli); assay: Test A pre-/postemergence plant response
Excerpt: as §1, §2

corn (Zea mays) = assay: Test A pre-/postemergence plant response
Excerpt: as §1, §2

[3] = system: wheat (Triticum aestivum); assay: Test A pre-/postemergence plant response
Excerpt: as §1, §2

[4] = system: morningglory (Ipomoea coccinea); assay: Test A pre-/postemergence plant response
Excerpt: as §1, §2

[5] = system: velvetleaf (Abutilon theophrasti); assay: Test A pre-/postemergence plant response
Excerpt: as §1, §2

[6] = system: large crabgrass (Digitaria sanguinalis); assay: Test A pre-/postemergence plant response
Excerpt: as §1, §2

[7] = system: pigweed (Amaranthus retroflexus); assay: Test A pre-/postemergence plant response
Excerpt: as §1, §2

[8] = system: barnyardgrass (Echinochloa crus-galli); assay: Test B flooded paddy test plant response
Excerpt: (§3) Plant species in the flooded paddy test consisted of rice (Oryza sativa), umbrella sedge (Cyperus difformis), ducksalad (Heteranthera limosa) and barnyardgrass (Echinochloa crus-galli) grown to the 2-leaf stage for testing. At time of treatment, test pots were flooded to 3 cm above the soil surface, treated by application of test compounds directly to the paddy water, and then maintained at that water depth for the duration of the test. Treated plants and controls were maintained in a greenhouse for 13 to 15 days, after which time all species were compared to controls and visually evaluated. Plant response ratings, summarized in Table B, are based on a scale of 0 to 100 where 0 is no effect and 100 is complete control. A dash (-) response means no test result.

rice (Oryza sativa) = assay: Test B flooded paddy test plant response
Excerpt: as §3

[9] = system: umbrella sedge (Cyperus difformis); assay: Test B flooded paddy test plant response
Excerpt: as §3

[10] = system: ducksalad (Heteranthera limosa); assay: Test B flooded paddy test plant response
Excerpt: as §3

[11] = Postemergence, 125 g ai/ha, 0 to 100 scale, 0 no effect, 100 complete control
[12] = Postemergence, 500 g ai/ha, 0 to 100 scale, 0 no effect, 100 complete control
[13] = Preemergence, 125 g ai/ha, 0 to 100 scale (0 no effect, 100 complete control)
[14] = Preemergence, 500 g ai/ha, 0 to 100 scale (0 no effect, 100 complete control)
[15] = Flood (flooded paddy test), 62 g ai/ha, scale 0 to 100, 0 no effect, 100 complete control
[16] = Flood (flooded paddy test), 125 g ai/ha, scale 0 to 100, 0 no effect, 100 complete control
[17] = Flood (flooded paddy test), 250 g ai/ha, scale 0 to 100, 0 no effect, 100 complete control
[18] = Flood, 31 g ai/ha, scale 0 to 100
[19] = Postemergence, 31 g ai/ha, 0 to 100 scale, 0 no effect, 100 complete control
[20] = Preemergence, 31 g ai/ha, 0 to 100 scale, 0 is no effect, 100 is complete control

SMILES: CCn1ncc(O)c(-c2cn(-c3ccc(Cl)cc3)nc2C)c1=O [Compound 65]
- Plant response rating, Foxtail, Giant [1, 11]: 0
- Plant response rating, Foxtail, Giant [1, 12]: 20
- Plant response rating, Foxtail, Giant [1, 13]: 0
- Plant response rating, Foxtail, Giant [1, 14]: 90
- Plant response rating, Barnyardgrass [2, 11]: 0
- Plant response rating, Barnyardgrass [2, 12]: 0
- Plant response rating, Barnyardgrass [2, 13]: 0
- Plant response rating, Barnyardgrass [2, 14]: 0
- Plant response rating, Corn (corn (Zea mays); [11]): 0
- Plant response rating, Corn (corn (Zea mays); [12]): 0
- Plant response rating, Corn (corn (Zea mays); [13]): 0
- Plant response rating, Corn (corn (Zea mays); [14]): 0
- Plant response rating, Wheat [3, 11]: 0
- Plant response rating, Wheat [3, 12]: 0
- Plant response rating, Wheat [3, 13]: 0
- Plant response rating, Wheat [3, 14]: 0
- Plant response rating, Morningglory [4, 11]: 0
- Plant response rating, Morningglory [4, 12]: 0
- Plant response rating, Morningglory [4, 13]: 0
- Plant response rating, Morningglory [4, 14]: 0
- Plant response rating, Velvetleaf [5, 11]: 0
- Plant response rating, Velvetleaf [5, 12]: 0
- Plant response rating, Velvetleaf [5, 13]: 0
- Plant response rating, Velvetleaf [5, 14]: 0
- Plant response rating, Crabgrass, Large [6, 11]: 0
- Plant response rating, Crabgrass, Large [6, 12]: 20
- Plant response rating, Crabgrass, Large [6, 13]: 0
- Plant response rating, Crabgrass, Large [6, 14]: 0
- Plant response rating, Pigweed [7, 11]: 0
- Plant response rating, Pigweed [7, 12]: 0
- Plant response rating, Pigweed [7, 13]: 0
- Plant response rating, Pigweed [7, 14]: 0
- Plant response rating, Barnyardgrass [8, 15]: 0
- Plant response rating, Barnyardgrass [8, 16]: 0
- Plant response rating, Barnyardgrass [8, 17]: 0
- Plant response rating, Barnyardgrass [8, 18]: 0
- Plant response rating, Rice (rice (Oryza sativa); [15]): 0
- Plant response rating, Rice (rice (Oryza sativa); [16]): 0
- Plant response rating, Rice (rice (Oryza sativa); [17]): 15
- Plant response rating, Rice (rice (Oryza sativa); [18]): 0
- Plant response rating, Sedge, Umbrella [9, 15]: 0
- Plant response rating, Sedge, Umbrella [9, 16]: 0
- Plant response rating, Sedge, Umbrella [9, 17]: 80
- Plant response rating, Sedge, Umbrella [9, 18]: 0
- Plant response rating, Ducksalad [10, 15]: 0
- Plant response rating, Ducksalad [10, 16]: 0
- Plant response rating, Ducksalad [10, 17]: 40
- Plant response rating, Ducksalad [10, 18]: 0

SMILES: CSc1cc(-c2ccc(F)cc2)nn1-c1c(O)cnn(C)c1=O [Compound 23]
- Plant response rating, Foxtail, Giant [1, 11]: 20
- Plant response rating, Foxtail, Giant [1, 12]: 80
- Plant response rating, Foxtail, Giant [1, 13]: 20
- Plant response rating, Foxtail, Giant [1, 14]: 70
- Plant response rating, Barnyardgrass [2, 11]: 0
- Plant response rating, Barnyardgrass [2, 12]: 70
- Plant response rating, Barnyardgrass [2, 13]: 0
- Plant response rating, Barnyardgrass [2, 14]: 10
- Plant response rating, Corn (corn (Zea mays); [11]): 0
- Plant response rating, Corn (corn (Zea mays); [12]): 20
- Plant response rating, Corn (corn (Zea mays); [13]): 0
- Plant response rating, Corn (corn (Zea mays); [14]): 20
- Plant response rating, Wheat [3, 11]: 0
- Plant response rating, Wheat [3, 12]: 0
- Plant response rating, Wheat [3, 13]: 0
- Plant response rating, Wheat [3, 14]: 0
- Plant response rating, Morningglory [4, 11]: 0
- Plant response rating, Morningglory [4, 12]: 0
- Plant response rating, Morningglory [4, 13]: 0
- Plant response rating, Morningglory [4, 14]: 0
- Plant response rating, Velvetleaf [5, 11]: 0
- Plant response rating, Velvetleaf [5, 12]: 0
- Plant response rating, Velvetleaf [5, 13]: 0
- Plant response rating, Velvetleaf [5, 14]: 0
- Plant response rating, Crabgrass, Large [6, 11]: 0
- Plant response rating, Crabgrass, Large [6, 12]: 20
- Plant response rating, Crabgrass, Large [6, 13]: 0
- Plant response rating, Crabgrass, Large [6, 14]: 0
- Plant response rating, Pigweed [7, 11]: 0
- Plant response rating, Pigweed [7, 12]: 0
- Plant response rating, Pigweed [7, 13]: 0
- Plant response rating, Pigweed [7, 14]: 0

SMILES: Cc1cc(-c2ccc(OC(F)(F)F)cc2)nn1-c1c(O)cnn(C)c1=O [Compound 14]
- Plant response rating, Foxtail, Giant [1, 11]: 80
- Plant response rating, Foxtail, Giant [1, 12]: 100
- Plant response rating, Foxtail, Giant [1, 13]: 80
- Plant response rating, Foxtail, Giant [1, 14]: 100
- Plant response rating, Barnyardgrass [2, 11]: 70
- Plant response rating, Barnyardgrass [2, 12]: 100
- Plant response rating, Barnyardgrass [2, 13]: 70
- Plant response rating, Barnyardgrass [2, 14]: 100
- Plant response rating, Corn (corn (Zea mays); [11]): 40
- Plant response rating, Corn (corn (Zea mays); [12]): 80
- Plant response rating, Corn (corn (Zea mays); [13]): 0
- Plant response rating, Corn (corn (Zea mays); [14]): 60
- Plant response rating, Wheat [3, 11]: 40
- Plant response rating, Wheat [3, 12]: 70
- Plant response rating, Wheat [3, 13]: 10
- Plant response rating, Wheat [3, 14]: 80
- Plant response rating, Morningglory [4, 11]: 0
- Plant response rating, Morningglory [4, 12]: 0
- Plant response rating, Morningglory [4, 13]: 0
- Plant response rating, Morningglory [4, 14]: 0
- Plant response rating, Velvetleaf [5, 11]: 0
- Plant response rating, Velvetleaf [5, 12]: 30
- Plant response rating, Velvetleaf [5, 13]: 0
- Plant response rating, Velvetleaf [5, 14]: 20
- Plant response rating, Crabgrass, Large [6, 11]: 60
- Plant response rating, Crabgrass, Large [6, 12]: 90
- Plant response rating, Crabgrass, Large [6, 13]: 70
- Plant response rating, Crabgrass, Large [6, 14]: 90
- Plant response rating, Pigweed [7, 11]: 0
- Plant response rating, Pigweed [7, 12]: 0
- Plant response rating, Pigweed [7, 13]: 0
- Plant response rating, Pigweed [7, 14]: 0
- Plant response rating, Barnyardgrass [8, 15]: 0
- Plant response rating, Barnyardgrass [8, 16]: 20
- Plant response rating, Barnyardgrass [8, 17]: 20
- Plant response rating, Barnyardgrass [8, 18]: 0
- Plant response rating, Rice (rice (Oryza sativa); [15]): 0
- Plant response rating, Rice (rice (Oryza sativa); [16]): 0
- Plant response rating, Rice (rice (Oryza sativa); [17]): 20
- Plant response rating, Rice (rice (Oryza sativa); [18]): 0
- Plant response rating, Sedge, Umbrella [9, 15]: 60
- Plant response rating, Sedge, Umbrella [9, 17]: 60
- Plant response rating, Sedge, Umbrella [9, 18]: 0
- Plant response rating, Ducksalad [10, 15]: 0
- Plant response rating, Ducksalad [10, 16]: 40
- Plant response rating, Ducksalad [10, 17]: 40
- Plant response rating, Ducksalad [10, 18]: 0

SMILES: Cc1cc(-c2ccc(Cl)cc2)nn1-c1c(OS(=O)(=O)C2CC2)cnn(C)c1=O [Compound 49]
- Plant response rating, Foxtail, Giant [1, 19]: 0
- Plant response rating, Foxtail, Giant [1, 11]: 20
- Plant response rating, Foxtail, Giant [1, 20]: 0
- Plant response rating, Foxtail, Giant [1, 13]: 80
- Plant response rating, Barnyardgrass [2, 19]: 0
- Plant response rating, Barnyardgrass [2, 11]: 0
- Plant response rating, Barnyardgrass [2, 20]: 0
- Plant response rating, Barnyardgrass [2, 13]: 0
- Plant response rating, Corn (corn (Zea mays); [19]): 0
- Plant response rating, Corn (corn (Zea mays); [11]): 0
- Plant response rating, Corn (corn (Zea mays); [20]): 0
- Plant response rating, Corn (corn (Zea mays); [13]): 0
- Plant response rating, Wheat [3, 19]: 0
- Plant response rating, Wheat [3, 11]: 0
- Plant response rating, Wheat [3, 20]: 0
- Plant response rating, Wheat [3, 13]: 0
- Plant response rating, Morningglory [4, 19]: 0
- Plant response rating, Morningglory [4, 11]: 0
- Plant response rating, Morningglory [4, 20]: 0
- Plant response rating, Morningglory [4, 13]: 0
- Plant response rating, Velvetleaf [5, 19]: 0
- Plant response rating, Velvetleaf [5, 11]: 0
- Plant response rating, Velvetleaf [5, 20]: 0
- Plant response rating, Velvetleaf [5, 13]: 0
- Plant response rating, Crabgrass, Large [6, 19]: 0
- Plant response rating, Crabgrass, Large [6, 11]: 20
- Plant response rating, Crabgrass, Large [6, 20]: 0
- Plant response rating, Crabgrass, Large [6, 13]: 40
- Plant response rating, Pigweed [7, 19]: 0
- Plant response rating, Pigweed [7, 11]: 0
- Plant response rating, Pigweed [7, 20]: 0
- Plant response rating, Pigweed [7, 13]: 0
- Plant response rating, Barnyardgrass [8, 15]: 0
- Plant response rating, Barnyardgrass [8, 16]: 0
- Plant response rating, Barnyardgrass [8, 17]: 0
- Plant response rating, Barnyardgrass [8, 18]: 0
- Plant response rating, Rice (rice (Oryza sativa); [15]): 0
- Plant response rating, Rice (rice (Oryza sativa); [16]): 0
- Plant response rating, Rice (rice (Oryza sativa); [17]): 0
- Plant response rating, Rice (rice (Oryza sativa); [18]): 0
- Plant response rating, Sedge, Umbrella [9, 15]: 0
- Plant response rating, Sedge, Umbrella [9, 16]: 0
- Plant response rating, Sedge, Umbrella [9, 17]: 0
- Plant response rating, Sedge, Umbrella [9, 18]: 0
- Plant response rating, Ducksalad [10, 15]: 0
- Plant response rating, Ducksalad [10, 17]: 0
- Plant response rating, Ducksalad [10, 18]: 0
